{"source": "patent US20260248773A1", "about": "“POTASSIUM CHANNEL BLOCKERS OR DERIVATIVES THEREOF FOR PREVENTING, ALLEVIATING, AND/OR TREATING TISSUE DYSFUNCTION CAUSED BY TOXIC INSULTS” (priority 2022, published 2026)", "key": {"[1]": {"system": "chemotherapy-induced peripheral neuropathy (CIPN) caused by PTX", "procedure": "More specifically, initial studies were conducted on the specific case of CIPN as induced by exposure to PTX. […] 16 week old C73L/6 female mice were given a single dose of 35 mg/kg PTX (i.p.). Animals were separated into control (saline, i.p., n=4) or treatment group (2 mg/kg 4-AP daily, i.p., n=4). Pre-treatment Catwalk scores were compared to 21 days post-PTX injection.\nTo align with clinical treatments, mice were treated with a PTX dose of 35 mg/kg (equivalent to approximately 110 mg/m^2 and within the clinical treatment range) for four cycles, each three weeks apart.\nThe studies also included a 4-AP treatment arm (n=4) with a daily dose of 2 mg/kg 4-AP administered i.p. (as per most previous studies by MN and colleagues).\nTo evaluate detailed functional changes in gait, the CatWalk™ (Noldus Information Technology, Wageningen, The Netherlands) method was implemented.\nSciatic nerve samples were harvested and resin-embedded, sectioned and imaged using transmission electron microscopy. Images were analyzed to calculate markers of peripheral neuropathy, namely: axon counts, fiber size, myelination (g ratio), and circumferential irregularity (FIG. 2)."}, "PTX-induced CIPN [2]": {"system": "PTX-induced CIPN", "assay": "Four PTX injections, concurrent 4-AP (Example 2)", "format": "in vivo, mice", "details": "4-AP 1 mg/kg daily concurrent", "procedure": "A subset of animals concurrently received 4-AP (1 mg/kg, daily), which was started at the same as the initial PTX treatment and continued throughout. Functional outcome responses were recorded at three-week intervals throughout the study period, and included von Frey monofilament testing, cold plate thermal sensitivity, CatWalk™ gait analysis, and nerve conduction testing. All animals had functionally demonstrable peripheral neuropathy at six weeks."}, "PTX-induced CIPN [3]": {"system": "PTX-induced CIPN", "assay": "Repetitive PTX exposure, concurrent low-dose 4-AP weeks 1-12: function and nerve ultrastructure (Examples 3 and 4)", "format": "in vivo, mice", "procedure": "To determine whether 4-AP also conferred protection against developing CIPN when animals were repetitively exposed to PTX, 16 week old C7BL/6 female mice were given four cycles of PTX treatment at doses of 35 mg/kg PTX (i.p.). Animals were separated into control (saline, i.p.) or treatment group treated with a dose of 4AP 25% of that used in Examples 1 and 2 (i.e., 0.5 mg/kg 4-AP daily, i.p.).\nTo determine whether 4-AP prevented chemotherapy-induced structural damage even when chemotherapy was applied multiple times, ultrastructural analyses of tissue from mice treated with 35 mg/kg PTX, every 3 weeks, for 4 cycles of treatment was conducted. A low dose of 4-AP that was only 25% of the dose used in Examples 1 and 2 was used, which was applied at 0.5 mg/kg daily instead of 2 mg/kg daily."}, "PTX-induced CIPN [4]": {"system": "PTX-induced CIPN", "assay": "Repetitive PTX exposure, delayed 4-AP from week 6 (Example 5)", "format": "in vivo, mice", "details": "four cycles 35 mg/kg PTX", "procedure": "To examine this question, 16 week old C7BL/6 female mice were given four cycles of PTX treatment at doses of 35 mg/kg PTX (i.p.). Animals were separated into control (saline, i.p.) or treatment group treated with a dose of 4AP 25% of that used in FIGS. 1 and 2 (i.e., 0.5 mg/kg 4-AP daily, i.p., with treatment initiated 6 weeks after the first PTX treatment and when CIPN-related changes were already apparent)."}, "kidney": {"system": "kidney", "assay": "Kidney histology (H&E) after PTX with or without 4-AP (Example 8)", "format": "in vivo, mice", "details": "PTX day 0", "procedure": "To examine effects on the kidney histological studies were conducted on this tissue. Mice received PTX on day 0 of the experiment, and half of those mice also were injected with 4-AP at this time, and every day thereafter, at a dosage of 2 mg/kg. Mice not receiving 4-AP were injected with saline to control for any stress induced by daily injections. Experimental groups also included mice receiving no PTX treatment, and treated only with daily injections of saline. Mice were sacrificed after 1 week. Mice were perfused with 4% paraformaldehyde and kidneys were sectioned and stained with haematoxylin & eosin (H&E)."}, "[5]": {"system": "E0771 murine breast cancer cell line", "assay": "4-AP co-applied with paclitaxel to cancer cells in vitro (Example 10)", "format": "cell-based", "procedure": "(§1) To investigate the effects of 4-AP treatment on cancer cells, 4-AP was co-applied with either paclitaxel or cisplatin in dose response curves extending over a >20-fold range to the widely studied E0771 murine breast cancer cell line and the A549 human lung cancer cell line. Cells were exposed to paclitaxel or cisplatin for 5 days in the presence or absence of 1 mM 4-AP. This concentration of 4-AP is typically used for in vitro studies, and greatly exceeds achievable concentrations in vivo. This higher dose would increase the likelihood of detecting protective activity."}, "[6]": {"system": "A549 human lung cancer cell line", "assay": "4-AP co-applied with cisplatin to cancer cells in vitro (Example 10)", "format": "cell-based", "details": "5 days, 1 mM 4-AP", "procedure": "as §1"}, "[7]": {"assay": "Circulating 4-AP levels by HPLC (Example 11)", "format": "in vivo, mice", "details": "for Circulating 4-AP levels, Amount / concentration at 1 h: 1 hour after i.p. injection, individual mice; for concentration at 1 h: mouse, blood, ip, 1 /g/kg, read-out: Circulating 4-AP levels, Amount", "procedure": "4-AP was injected i.p. at the indicated time points after the beginning of treatment. Mice received PTX on day 0 of the experiment, and half of those mice also were injected with 4-AP at this time, and every day thereafter, at a dosage of 1/g/kg. Blood samples were drawn 3 and 7 days after the beginning of the experiment and were taken 1 hour after the injection of 4-AP. Circulating levels of 4-AP were determined by HPLC analysis."}, "Guillain-Barré Syndrome": {"system": "Guillain-Barré Syndrome", "details": "cited from earlier work"}, "[8]": {"system": "chronic spinal cord injury", "details": "individuals with chronic spinal cord injury; cited from earlier work"}, "[9]": {"details": "3 weeks after one 35 mg/kg PTX, 2 mg/kg 4-AP daily"}, "[10]": {"details": "single 35 mg/kg PTX i.p., 2 mg/kg 4-AP daily i.p., vs saline control"}, "[11]": {"details": "single 35 mg/kg PTX, 2 mg/kg 4-AP daily i.p., pre-treatment vs 21 days post-PTX"}, "[12]": {"details": "four cycles 35 mg/kg PTX, 0.5 mg/kg 4-AP daily"}, "[13]": {"details": "four cycles 35 mg/kg PTX, 0.5 mg/kg 4-AP daily i.p."}, "[14]": {"details": "0.5 mg/kg 4-AP daily started at week 6"}, "[15]": {"details": "mice treated with 4-AP only, 3 days post"}, "[16]": {"details": "mice treated with PTX + 4-AP, 7 day 1st draw"}}, "note": "Where “and” joins values, the source holds several entries; their conditions need not be identical. Identical values can stand only once. Like-named read-outs stand apart in the source and are kept apart here."}
{"smiles": "Nc1ccncc1", "note": "[4-AP, 4-aminopyridine]", "values": [{"measurement": "PTX-induced changes in mitochondrial size and health", "setting": "[1]; 2 mg/kg 4-AP daily i.p.", "result": "decreased PTX-induced changes in mitochondrial size and health"}, {"measurement": "signs of CIPN", "setting": "[1]; 2 mg/kg 4-AP daily i.p. vs saline, n=4", "result": "significantly reduced signs of CIPN"}, {"measurement": "G ratio (axon:myelin area), sciatic nerve", "setting": "[1]; [9]", "result": "better myelinated than the control group"}, {"measurement": "axon circularity, sciatic nerve", "setting": "[1]; [9]", "result": "more regularly structured than the control group"}, {"measurement": "nerve conduction latency", "setting": "[1]; [10]", "result": "significantly smaller increase in latency"}, {"measurement": "nerve conduction velocity", "setting": "[1]; [10]", "result": "significantly smaller decrease in velocity"}, {"measurement": "Catwalk stance phase", "setting": "[1]; [11]", "result": "no significant changes"}, {"measurement": "Catwalk swing phase", "setting": "[1]; [11]", "result": "no significant changes"}, {"measurement": "mechanical allodynia, Von Frey filament testing", "setting": "PTX-induced CIPN [2]; four 35 mg/kg PTX i.p. at three-week intervals", "result": "no changes from baseline in their response"}, {"measurement": "amplitude and velocity of nerve impulse conduction", "setting": "PTX-induced CIPN [2]; four 35 mg/kg PTX", "result": "prevented the development of these changes"}, {"measurement": "loss of cold sensitivity, paw lifts and hind paw licks on cold plate", "setting": "PTX-induced CIPN [2]; four 35 mg/kg PTX", "result": "prevented the development of these changes"}, {"measurement": "sensitivity to cold, jumps off cold plate", "setting": "PTX-induced CIPN [2]; four 35 mg/kg PTX", "result": "no changes from baseline in this parameter"}, {"measurement": "G ratio (axon:myelin area)", "setting": "PTX-induced CIPN [3]; [12]", "result": "better myelinated than the control (PTX+Saline) group"}, {"measurement": "axon circularity", "setting": "PTX-induced CIPN [3]; [12]", "result": "more regularly structured than the control group"}, {"measurement": "frequency of degenerating myelin profiles", "setting": "PTX-induced CIPN [3]; [12]", "result": "decreased frequency of degenerating myelin profiles"}, {"measurement": "gait abnormalities, Catwalk analyses", "setting": "PTX-induced CIPN [3]; [13]", "result": "ameliorated PTX-induced gait abnormalities"}, {"measurement": "jumping behavior, cold-plate stimulus", "setting": "PTX-induced CIPN [3]; [13]", "result": "highly significant at Weeks 6, 9 and 12"}, {"measurement": "nerve conduction (latency, amplitude, velocity)", "setting": "PTX-induced CIPN [3]; [13]", "result": "ameliorated PTX-induced abnormalities in nerve conduction"}, {"measurement": "pawlifts, cold-plate stimulus", "setting": "PTX-induced CIPN [3]; [13]", "result": "trended significant at Weeks 6 and 9 and were highly significant at Week 12"}, {"measurement": "mechanical hypersensitivity, von Frey filament testing", "setting": "PTX-induced CIPN [3]; four cycles 35 mg/kg PTX, 0.5 mg/kg 4-AP daily i.p. weeks 1-12", "result": "ameliorated PTX-induced mechanical hypersensitivity"}, {"measurement": "mitochondrial health by mitochondrial structure", "setting": "PTX-induced CIPN [3]; repetitive exposure to chemotherapy, 0.5 mg/kg 4-AP daily", "result": "improves mitochondrial health"}, {"measurement": "mechanical hypersensitivity, von Frey filament testing", "setting": "PTX-induced CIPN [4]; 0.5 mg/kg 4-AP daily i.p. started at week 6", "result": "benefits of 4-AP treatment began to be observed at Week 12"}, {"measurement": "gait abnormalities, Catwalk analyses", "setting": "PTX-induced CIPN [4]; [14]", "result": "reversed PTX-induced gait abnormalities"}, {"measurement": "jumping behavior, cold-plate stimulus", "setting": "PTX-induced CIPN [4]; [14]", "result": "reversed the symptoms of hypersensitivity to thermal stimuli"}, {"measurement": "nerve conduction (latency, amplitude, velocity)", "setting": "PTX-induced CIPN [4]; [14]", "result": "reversed PTX-induced abnormalities in nerve conduction"}, {"measurement": "structural myelin abnormalities indicative of myelin degeneration", "setting": "PTX-induced CIPN [4]; [14]", "result": "reversed PTX-induced structural myelin abnormalities"}, {"measurement": "proximal and distal tubules, H&E staining", "setting": "kidney; 4-AP 2 mg/kg daily, sacrificed after 1 week", "result": "normal proximal and distal tubules"}, {"measurement": "histological kidney damage caused by PTX exposure", "setting": "kidney; 4-AP co-treatment", "result": "prevented multiple aspects of histological kidney damage"}, {"measurement": "protection of cancer cells from PTX", "setting": "[5]; 5 days exposure to PTX in vitro, concurrent 4-AP (1 mM)", "result": "did not protect"}, {"measurement": "sensitivity of cancer cells to paclitaxel", "setting": "[5]; 5 days, 1 mM 4-AP", "result": "appears to even increase sensitivity to low doses of paclitaxel"}, {"measurement": "protection of cancer cells from cisplatin", "setting": "[6]", "result": "does not protect"}, {"measurement": "PTX-induced changes in kidney function (inferred from 4-AP renal clearance)", "setting": "[7]; PTX day 0, 4-AP daily", "result": "prevented PTX-induced changes in kidney function"}, {"measurement": "circulating 4-AP levels, 4-AP alone versus 4-AP+PTX", "setting": "[7]; day 3 or day 7, 1 hour after i.p. injection", "result": "did not differ"}, {"measurement": "Circulating 4-AP levels, Amount", "setting": "[7]; [15]", "result": "0.393 µM and 0.376 µM and 0.486 µM and 0.427 µM"}, {"measurement": "Circulating 4-AP levels, Amount", "setting": "[7]; mice treated with 4-AP only, 7 day 1st draw", "result": "0.376 µM and 0.246 µM and 0.293 µM and 0.140 µM and 0.337 µM"}, {"measurement": "Circulating 4-AP levels, Amount", "setting": "[7]; mice treated with PTX + 4-AP, 3 days post", "result": "0.721 µM and 0.504 µM and 0.312 µM and 0.321 µM and 0.277 µM"}, {"measurement": "Circulating 4-AP levels, Amount", "setting": "[7]; [16]", "result": "0.292 µM and 0.274 µM and 0.236 µM and 0.231 µM"}, {"measurement": "concentration at 1 h", "setting": "[7]; [15]", "result": 298, "unit": "nM"}, {"measurement": "concentration at 1 h", "setting": "[7]; [16]", "result": 352, "unit": "nM"}, {"measurement": "pain scores (McGill Pain Inventory questionnaire, visual analog scale)", "setting": "Guillain-Barré Syndrome; 4-AP vs placebo, p=0.92", "result": "no difference"}, {"measurement": "nerve conduction velocity", "setting": "Guillain-Barré Syndrome; Guillain-Barré patients", "result": "no clinically significant changes"}, {"measurement": "Phase III outcome", "setting": "[8]", "result": "failed to reveal significant benefits"}, {"measurement": "neuropathic pain", "setting": "[8]", "result": "decrease neuropathic pain in some individuals"}]}
